# In patent publication US10508104B2, “6-hydroxy-5-(phenyl/heteroarylsulfonyl)pyrimidin-4(1H)-one as APJ agonists” (Bristol-Myers Squibb Company, priority 2016, dated 2019):
# Target: human APJ receptor (Homo sapiens (Human), UniProt P35414)
# Test: Intracellular cAMP accumulation assay (APJ hcAMP, HTRF)
# Type: cell-based
# Settings: HEK293 cells stably expressing human APJ receptor; inhibition of forskolin-mediated cAMP production; read-out: Human APJ cAMP EC50 Potency range
# Summary of the method: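 HEK293 cells stably expressing human APJ, 5,000 per well, incubated 30 min at rt with compound, […] and 2 μM forskolin. cAMP measured by HTRF against a cAMP standard curve as inhibition of forskolin-driven production. EC50 from variable-slope sigmoidal fit.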
# Chain of human APJ receptor (P35414 whole entry): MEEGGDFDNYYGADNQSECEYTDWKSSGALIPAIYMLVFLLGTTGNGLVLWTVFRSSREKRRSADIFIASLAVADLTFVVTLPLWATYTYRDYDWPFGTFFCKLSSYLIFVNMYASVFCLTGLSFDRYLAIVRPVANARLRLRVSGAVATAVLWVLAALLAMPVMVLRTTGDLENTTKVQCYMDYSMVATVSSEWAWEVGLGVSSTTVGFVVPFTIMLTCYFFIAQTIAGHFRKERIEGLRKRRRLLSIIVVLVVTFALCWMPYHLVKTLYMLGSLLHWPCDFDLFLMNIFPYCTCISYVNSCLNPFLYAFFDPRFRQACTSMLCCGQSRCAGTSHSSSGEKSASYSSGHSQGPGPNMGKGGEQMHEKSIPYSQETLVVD
row,SMILES,EC50 [nM]
1,"CC[C@@H](c1ccccc1)n1c(C2CCCC2)nc(=O)c(S(=O)(=O)c2ccc(Br)cc2)c1O [Example 279, (S)-5-((4-Bromophenyl)sulfonyl)-2-cyclopentyl-6-hydroxy-1-(1-phenylpropyl)pyrimidin-4(1H)-one]",10 to 100
2,"CC[C@@H](c1cccc(C#N)c1)n1c(COC(C)C)nc(=O)c(S(=O)(=O)c2ccc(-c3ccncc3C#N)cc2)c1O [Example 403, 4-[4-({1-[(1S)-1-(3-cyanophenyl)propyl]-6-hydroxy-4-oxo-2-[(propan-2-yloxy)methyl]-1,4-dihydropyrimidin-5-yl}sulfonyl)phenyl]pyridine-3-carbonitrile]",0.01 to 10
3,"CCCCc1nc(=O)c(S(=O)(=O)c2ccc(-c3cccnc3C)cc2)c(O)n1[C@@H](CC)c1ccc(F)c(C#N)c1 [Example 439, 5-[(1S)-1-{2-butyl-6-hydroxy-5-[4-(2-methylpyridin-3-yl)benzenesulfonyl]-4-oxo-1,4-dihydropyrimidin-1-yl}propyl]-2-fluorobenzonitrile]",0.01 to 10
4,"CCCCc1nc(=O)c(S(=O)(=O)c2ccc(-c3ccncc3F)cc2)c(O)n1[C@@H](CC)c1cccc(C#N)c1 [Example 512, 3-[(1S)-1-{2-butyl-5-[4-(3-fluoropyridin-4-yI)benzenesulfonyl]-6-hydroxy-4-oxo-1,4-dihydropyrimidin-1-yl}propyl]benzonitrile]",0.01 to 10
5,"COC[C@@H](c1cc(F)cc(F)c1)n1c(COC(C)C)nc(=O)c(S(=O)(=O)c2ccc(-c3cnn(C)c3C)cc2)c1O [Example 397, 1-[(1R)-1-(3,5-difluorophenyl)-2-methoxyethyl]-5-[4-(1,5-dimethyl-1H-pyrazol-4-yl)benzenesulfonyl]-6-hydroxy-2-[(propan-2-yloxy)methyl]-1,4-dihydropyrimidin-4-one]",0.01 to 10
6,"N#Cc1cccc([C@H](C2CC2)n2c(CC3CC3)nc(=O)c(S(=O)(=O)c3ccc(-c4ccc(F)cc4C(N)=O)cc3)c2O)c1 [Example 500, 4′-({1-[(S)-(3-cyanophenyl)(cyclopropyl)methyl]-2-(cyclopropylmethyl)-6-hydroxy-4-oxo-1,4-dihydropyrimidin-5-yl}sulfonyl)-4-fluoro-[1,1′-biphenyl]-2-carboxamide]",0.01 to 10
7,"COC[C@@H](c1ccccc1)n1c(COC(C)C)nc(=O)c(S(=O)(=O)c2ccc(-c3cnccc3C#N)c(F)c2)c1O [Example 409, 3-[2-fluoro-4-({6-hydroxy-1-[(1R)-2-methoxy-1-phenylethyl]-4-oxo-2-[(propan-2-yloxy)methyl]-1,4-dihydropyrimidin-5-yl}sulfonyl)phenyl]pyridine-4-carbonitrile]",0.01 to 10
8,"CCCCc1nc(=O)c(S(=O)(=O)c2ccc(-c3ccnc(F)c3F)cc2)c(O)n1[C@@H](CC)c1cccc(C#N)c1 [Example 506, 3-[(1S)-1-{2-butyl-5-[4-(2,3-difluoropyridin-4-yl)benzenesulfonyl]-6-hydroxy-4-oxo-1,4-dihydropyrimidin-1-yl}propyl]benzonitrile]",0.01 to 10
9,"CCCCc1nc(=O)c(S(=O)(=O)c2ccc(-c3ccc(F)nc3C)cc2)c(O)n1[C@@H]1CCc2ccc(C#N)cc21 [Example 546, (3R)-3-{2-butyl-5-[4-(6-fluoro-2-methylpyridin-3-yl)benzenesulfonyl]-6-hydroxy-4-oxo-1,4-dihydropyrimidin-1-yl}-2,3-dihydro-1H-indene-5-carbonitrile]",100 to 300
10,"CC[C@@H](c1cccc(C#N)c1)n1c(CC2CC2)nc(=O)c(S(=O)(=O)c2ccc(-c3ccc(F)cc3C(N)=O)cc2)c1O [Example 469, 4′-({1-[(1S)-1-(3-cyanophenyl)propyl]-2-(cyclopropylmethyl)-6-hydroxy-4-oxo-1,4-dihydropyrimidin-5-yl}sulfonyl)-4-fluoro-[1,1′-biphenyl]-2-carboxamide]",0.01 to 10

# Same assay, conditions: human APJ, cAMP accumulation; read-out: Human APJ cAMP EC50 Potency range
row,SMILES,EC50 [nM]
1,"CCCCc1nc(=O)c(S(=O)(=O)c2ccc(-c3ccnc(F)c3C)cc2)c(O)n1[C@@H](CC)c1cccc(F)c1 [Example 217, 2-butyl-5-[4-(2-fluoro-3-methylpyridin-4-yl)benzenesulfonyl]-1-[(1S)-1-(3-fluorophenyl)propyl]-6-hydroxy-1,4-dihydropyrimidin-4-one]",0.01 to 10
2,COC[C@@H](c1ccccc1)n1c(COC(C)C)nc(=O)c(S(=O)(=O)c2ccc(-c3cccnc3C)cc2)c1O [Example 328],0.01 to 10
3,"CCCCc1nc(O)c(S(=O)(=O)c2ccc(Br)cc2)c(=O)n1[C@H](CC)c1cccc2c1OCO2 [Example 254, 3-[(1R)-1-(2H-1,3-benzodioxol-4-yl)propyl]-5-(4-bromobenzenesulfonyl)-2-butyl-6-hydroxy-3,4-dihydropyrimidin-4-one]",10 to 100
4,"CCCCc1nc(=O)c(S(=O)(=O)c2ccc(-c3ccncc3C)cc2)c(O)n1[C@@H](CC)c1cccc2c1OCO2 [Example 256, 1-[(1S)-1-(2H-1,3-benzodioxol-4-yl)propyl]-2-butyl-6-hydroxy-5-[4-(3-methylpyridin-4-yl)benzenesulfonyl]-1,4-dihydropyrimidin-4-one]",0.01 to 10
5,"CCOCc1nc(=O)c(S(=O)(=O)c2ccc(Br)cc2)c(O)n1[C@@H](CC)c1ccccc1 [Example 285, 5-(4-bromobenzenesulfonyl)-2-(ethoxymethyl)-6-hydroxy-1-[(1S)-1-phenylpropyl]-1,4-dihydropyrimidin-4-one]",100 to 300
6,"CCCCc1nc(=O)c(S(=O)(=O)c2ccc(-c3ccc(F)nc3C)cc2)c(O)n1[C@H](CC)c1cccc2c1OCO2 [Example 262, 1-[(1R)-1-(2H-1,3-benzodioxol-4-yl)propyl]-2-butyl-5-[4-(6-fluoro-2-methylpyridin-3-yl)benzenesulfonyl]-6-hydroxy-1,4-dihydropyrimidin-4-one]",0.01 to 10
7,"CCCCc1nc(=O)c(S(=O)(=O)c2ccc(-c3ccnc(F)c3C)cc2)c(O)n1[C@@H](C)c1ccc(OC)cc1 [Example 244, 2-butyl-5-[4-(2-fluoro-3-methylpyridin-4-yl)benzenesulfonyl]-6-hydroxy-1-[(1S)-1-(4-methoxyphenyl)ethyl]-1,4-dihydropyrimidin-4-one]",0.01 to 10
8,"COC[C@@H](c1ccccc1)n1c(C2CCCO2)nc(=O)c(S(=O)(=O)c2ccc(-c3ccc(F)nc3C)cc2)c1O (mixture of isomers) [Example 355, 5-[4-(6-fluoro-2-methylpyridin-3-yl)benzenesulfonyl]-6-hydroxy-1-[(1R)-2-methoxy-1-phenylethyl]-2-(oxolan-2-yl)-1,4-dihydropyrimidin-4-one]",0.01 to 10

# Same assay, conditions: human APJ, intracellular cAMP accumulation; read-out: Human APJ cAMP EC50 Potency range
row,SMILES,EC50 [nM]
1,"CCCCc1nc(=O)c(S(=O)(=O)c2ccc(-c3ccccc3C#N)cc2)c(O)n1-c1c(OC)cccc1OC [Example 46, 2-(4-{[2-butyl-1-(2,6-dimethoxyphenyl)-6-hydroxy-4-oxo-1,4-dihydropyrimidin-5-yl]sulfonyl}phenyl) benzonitrile]",0.01 to 10
2,"CCCCc1nc(=O)c(S(=O)(=O)c2ccc(-c3ccc(CN(C)C)cc3)cc2)c(O)n1-c1c(OC)cccc1OC [Example 38, 2-butyl-1-(2,6-dimethoxyphenyl)-5-(4-{4-[(dimethyla,o)methyl]phenyl}benzenesulfonyl)-6-hydroxy-1,4-dihydropyrimidin-4-one]",0.01 to 10
3,"CCCCc1nc(=O)c(S(=O)(=O)c2ccc(-c3cccc4cnccc34)cc2)c(O)n1-c1c(OC)cccc1OC [Example 52, 2-butyl-1-(2,6-dimethoxyphenyl)-6-hydroxy-5-[4-(isoquinolin-5-yl)benzenesulfonyl]-1,4-dihydropyrimidin-4-one]",0.01 to 10
4,"CCOCc1nc(=O)c(S(=O)(=O)c2ccc(C)cc2)c(O)n1-c1c(CC)cccc1CC [Example 67, 1-(2,6-diethylphenyl)-2-(ethoxymethyl)-6-hydroxy-5-(4-methylbenzenesulfonyl)-1,4-dihydropyrimidin-4-one]",0.01 to 10
5,"CCCCc1nc(=O)c(S(=O)(=O)c2ccc(Br)cc2)c(O)n1[C@H](C)c1ccc(OC)cc1 [Example 185, 5-(4-bromobenzenesulfonyl)-2-butyl-6-hydroxy-1-[(1R)-1-(4-methoxyphenyl)ethyl]-1,4-dihydropyrimidin-4-one]",100 to 300
6,"CCCCc1nc(=O)c(S(=O)(=O)c2ccc(-c3ccnc(NC(=O)C4CC4)c3)cc2)c(O)n1-c1c(OC)cccc1OC [Example 51, N-[4-(4-{[2-butyl-1-(2,6-dimethoxyphenyl)-6-hydroxy-4-oxo-1,4-dihydropyrimidin-5-yl]sulfonyl}phenyl)pyri-din-2-yl]cyclopropane-carboxamide]",0.01 to 10
7,"CCCCc1nc(=O)c(S(=O)(=O)c2ccc(-c3ccnc(F)c3C)c(F)c2)c(O)n1-c1c(OC)cccc1OC [Example 69, 2-butyl-1-(2,6-dimethoxyphenyl)-5-[3-fluoro-4-(2-fluoro-3-methylpyridin-4-yl)benzenesulfonyl]-6-hydroxy-1,4-dihydropyrimidin-4-one]",0.01 to 10
8,"CCCCc1nc(=O)c(S(=O)(=O)c2ccc(-c3ccncc3C)cc2)c(O)n1[C@@H](C)c1ccccc1 [Example 138, 2-butyl-6-hydroxy-5-[4-(3-methylpyridin-4-yl)benzenesulfonyl]-1-[(1S)-1-phenylethyl]-1,4-dihydropyrimidin-4-one]",0.01 to 10
9,"CCCCc1nc(=O)c(S(=O)(=O)c2ccc(-c3cccnc3C)cc2)c(O)n1[C@@H](CC)c1cccc(Cl)c1 [Example 193, 2-butyl-1-[(1S)-1-(3-chlorophenyl)propyl]-6-hydroxy-5-[4-(2-methylpyridin-3-yl)benzenesulfonyl]-1,4-dihydropyrimidin-4-one]",0.01 to 10
10,"COC[C@@H](c1ccccc1)n1c(CC2CC2)nc(=O)c(S(=O)(=O)c2ccc(-c3ccc(F)nc3C)cc2)c1O [Example 183, 2-(cyclopropylmethyl)-5-[4-(6-fluoro-2-methylpyridin-3-yl)benzenesulfonyl]-6-hydroxy-1-[(1R)-2-methoxy-1-phenylethyl]-1,4-dihydropyrimidin-4-one]",0.01 to 10
